Measurements: patent US10597388B2, “Pyridazinone herbicides” (FMC CORPORATION, priority 2014, dated 2020)

Columns and labels:
Assay in all cases: Test E greenhouse herbicide test, pre- and postemergence
Assay type in all cases: in vivo
[1] = test system: panicum, fall (fall panicum, Panicum dichotomiflorum)
Method in brief: (§1)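 For each species, sown seed in silt loam and young plants (2 to 18 cm) in a peat/vermiculite medium were each treated with compound dissolved in surfactant-containing, non-phytotoxic solvent. After 14 to 21 d under greenhouse conditions, effects were visually rated, 100 meaning complete control.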

[2] = test system: lambsquarters (Chenopodium album); settings: Preemergence
Method in brief: as §1

[3] = test system: field bindweed (Convolvulus arvensis)
Method in brief: as §1

[4] = test system: barnyardgrass (Echinochloa crus-galli)
Method in brief: as §1

[5] = test system: waterhemp (common waterhemp, Amaranthus rudis)
Method in brief: as §1

[6] = test system: beggarticks (hairy beggarticks, Bidens pilosa)
Method in brief: as §1

corn (Zea mays) = test system: corn (Zea mays)
Method in brief: as §1

[7] = test system: goosegrass (Eleusine indica); settings: Preemergence
Method in brief: as §1

[8] = test system: nutsedge, yellow (yellow nutsedge, Cyperus esculentus); settings: Preemergence
Method in brief: as §1

[9] = test system: crabgrass, Brazilian (Brazilian crabgrass, Digitaria horizontalis)
Method in brief: as §1

[10] = test system: sandbur (southem sandbur, Cenchrus echinatus)
Method in brief: as §1

[11] = test system: ragweed (common ragweed, Ambrosia elatior)
Method in brief: as §1

[12] = test system: surinam grass (Brachiaria decumbens); settings: Preemergence
Method in brief: as §1

[13] = 62 g ai/ha, Postemergence, scale 0 to 100 (0 no effect, 100 complete control)
[14] = 62 g ai/ha, Preemergence, scale 0 to 100 (0 no effect, 100 complete control)
[15] = 125 g ai/ha, Postemergence, scale 0 to 100 (0 no effect, 100 complete control)
[16] = 125 g ai/ha, Preemergence, scale 0 to 100 (0 no effect, 100 complete control)
[17] = 250 g ai/ha, Postemergence, scale 0 to 100 (0 no effect, 100 complete control)
[18] = Postemergence, 31 g ai/ha, visual, scale 0 no effect to 100 complete control
[19] = Preemergence, 31 g ai/ha, scale 0 to 100, 0 no effect, 100 complete control
[20] = Preemergence, 250 g ai/ha, visual, scale 0 no effect to 100 complete control
[21] = 62 g ai/ha, scale 0 to 100 (0 no effect, 100 complete control)
[22] = 31 g ai/ha, scale 0 to 100, 0 no effect, 100 complete control
[23] = 125 g ai/ha, visual, scale 0 no effect to 100 complete control
[24] = 250 g ai/ha, visual, scale 0 no effect to 100 complete control
[25] = Preemergence, 125 g ai/ha, visual, scale 0 no effect to 100 complete control
[26] = 125 g ai/ha, scale 0 to 100 (0 no effect, 100 complete control)

## Cn1nc(Br)c(O)c(-c2cccc3ccccc23)c1=O [Compound 20]
[1]; [13]
  Plant response rating, Panicum, Fall: 15
[1]; [14]
  Plant response rating, Panicum, Fall: 35
[1]; [15]
  Plant response rating, Panicum, Fall: 30
[1]; [16]
  Plant response rating, Panicum, Fall: 65
[1]; [17]
  Plant response rating, Panicum, Fall: 50
[1]; [18]
  Plant response rating, Panicum, Fall: 0
[1]; [19]
  Plant response rating, Panicum, Fall: 0
[1]; [20]
  Plant response rating, Panicum, Fall: 98
[2]; [21]
  Plant response rating, Lambsquarters: 95
[2]; [22]
  Plant response rating, Lambsquarters: 70
[2]; [23]
  Plant response rating, Lambsquarters: 95
[2]; [24]
  Plant response rating, Lambsquarters: 100
[3]; [13]
  Plant response rating, Field Bindweed: 85
[3]; [14]
  Plant response rating, Field Bindweed: 65
[3]; [15]
  Plant response rating, Field Bindweed: 90
[3]; [17]
  Plant response rating, Field Bindweed: 95
[3]; [18]
  Plant response rating, Field Bindweed: 75
[3]; [19]
  Plant response rating, Field Bindweed: 35
[3]; [25]
  Plant response rating, Field Bindweed: 85
[3]; [20]
  Plant response rating, Field Bindweed: 95
[4]; [13]
  Plant response rating, Barnyardgrass: 50
[4]; [14]
  Plant response rating, Barnyardgrass: 0
[4]; [15]
  Plant response rating, Barnyardgrass: 60
[4]; [17]
  Plant response rating, Barnyardgrass: 80
[4]; [18]
  Plant response rating, Barnyardgrass: 30
[4]; [19]
  Plant response rating, Barnyardgrass: 0
[4]; [25]
  Plant response rating, Barnyardgrass: 10
[4]; [20]
  Plant response rating, Barnyardgrass: 30
[5]; [13]
  Plant response rating, Waterhemp: 75
[5]; [14]
  Plant response rating, Waterhemp: 65
[5]; [15]
  Plant response rating, Waterhemp: 80
[5]; [16]
  Plant response rating, Waterhemp: 85
[5]; [17]
  Plant response rating, Waterhemp: 85
[5]; [18]
  Plant response rating, Waterhemp: 70
[5]; [19]
  Plant response rating, Waterhemp: 0
[5]; [20]
  Plant response rating, Waterhemp: 100
[6]; [13]
  Plant response rating, Beggarticks: 95
[6]; [14]
  Plant response rating, Beggarticks: 85
[6]; [15]
  Plant response rating, Beggarticks: 98
[6]; [17]
  Plant response rating, Beggarticks: 100
[6]; [18]
  Plant response rating, Beggarticks: 85
[6]; [19]
  Plant response rating, Beggarticks: 20
[6]; [25]
  Plant response rating, Beggarticks: 95
[6]; [20]
  Plant response rating, Beggarticks: 98
Corn (Zea mays); [13]
  Plant response rating, Corn: 0
Corn (Zea mays); [14]
  Plant response rating, Corn: 0
Corn (Zea mays); [15]
  Plant response rating, Corn: 0
Corn (Zea mays); [17]
  Plant response rating, Corn: 15
Corn (Zea mays); [18]
  Plant response rating, Corn: 0
Corn (Zea mays); [19]
  Plant response rating, Corn: 0
Corn (Zea mays); [25]
  Plant response rating, Corn: 0
Corn (Zea mays); [20]
  Plant response rating, Corn: 0
[7]; [21]
  Plant response rating, Goosegrass: 10
[7]; [22]
  Plant response rating, Goosegrass: 20
[7]; [23]
  Plant response rating, Goosegrass: 50
[7]; [24]
  Plant response rating, Goosegrass: 85
[8]; [21]
  Plant response rating, Nutsedge, Yellow: 50
[8]; [26]
  Plant response rating, Nutsedge, Yellow: 75
[8]; [22]
  Plant response rating, Nutsedge, Yellow: 0
[8]; [24]
  Plant response rating, Nutsedge, Yellow: 95
[9]; [13]
  Plant response rating, Crabgrass, Brazil: 20
[9]; [14]
  Plant response rating, Crabgrass, Brazil: 60
[9]; [15]
  Plant response rating, Crabgrass, Brazil: 20
[9]; [17]
  Plant response rating, Crabgrass, Brazil: 50
[9]; [18]
  Plant response rating, Crabgrass, Brazil: 10
[9]; [19]
  Plant response rating, Crabgrass, Brazil: 40
[9]; [25]
  Plant response rating, Crabgrass, Brazil: 70
[9]; [20]
  Plant response rating, Crabgrass, Brazil: 90
[10]; [13]
  Plant response rating, Sandbur: 20
[10]; [14]
  Plant response rating, Sandbur: 0
[10]; [15]
  Plant response rating, Sandbur: 30
[10]; [16]
  Plant response rating, Sandbur: 65
[10]; [17]
  Plant response rating, Sandbur: 40
[10]; [18]
  Plant response rating, Sandbur: 15
[10]; [19]
  Plant response rating, Sandbur: 0
[10]; [20]
  Plant response rating, Sandbur: 75
[11]; [13]
  Plant response rating, Ragweed: 75
[11]; [14]
  Plant response rating, Ragweed: 65
[11]; [15]
  Plant response rating, Ragweed: 85
[11]; [16]
  Plant response rating, Ragweed: 70
[11]; [17]
  Plant response rating, Ragweed: 80
[11]; [18]
  Plant response rating, Ragweed: 65
[11]; [19]
  Plant response rating, Ragweed: 30
[11]; [20]
  Plant response rating, Ragweed: 98
[12]; [21]
  Plant response rating, Surinam Grass: 65
[12]; [26]
  Plant response rating, Surinam Grass: 85
[12]; [22]
  Plant response rating, Surinam Grass: 10
[12]; [24]
  Plant response rating, Surinam Grass: 90

## Cc1cc(C)c2ccccc2c1-c1c(O)c(C)nn(C)c1=O [Compound 21]
[1]; [14]
  Plant response rating, Panicum, Fall: 100
[1]; [16]
  Plant response rating, Panicum, Fall: 100
[1]; [19]
  Plant response rating, Panicum, Fall: 100
[2]; [21]
  Plant response rating, Lambsquarters: 100
[2]; [22]
  Plant response rating, Lambsquarters: 100
[2]; [23]
  Plant response rating, Lambsquarters: 100
[3]; [14]
  Plant response rating, Field Bindweed: 95
[3]; [19]
  Plant response rating, Field Bindweed: 35
[3]; [25]
  Plant response rating, Field Bindweed: 98
[4]; [14]
  Plant response rating, Barnyardgrass: 70
[4]; [19]
  Plant response rating, Barnyardgrass: 40
[4]; [25]
  Plant response rating, Barnyardgrass: 90
[5]; [14]
  Plant response rating, Waterhemp: 95
[5]; [16]
  Plant response rating, Waterhemp: 100
[5]; [19]
  Plant response rating, Waterhemp: 95
[6]; [14]
  Plant response rating, Beggarticks: 100
[6]; [19]
  Plant response rating, Beggarticks: 100
[6]; [25]
  Plant response rating, Beggarticks: 100
Corn (Zea mays); [14]
  Plant response rating, Corn: 0
Corn (Zea mays); [19]
  Plant response rating, Corn: 0
Corn (Zea mays); [25]
  Plant response rating, Corn: 30
[7]; [21]
  Plant response rating, Goosegrass: 95
[7]; [22]
  Plant response rating, Goosegrass: 90
[7]; [23]
  Plant response rating, Goosegrass: 95
[8]; [21]
  Plant response rating, Nutsedge, Yellow: 75
[8]; [26]
  Plant response rating, Nutsedge, Yellow: 80
[8]; [22]
  Plant response rating, Nutsedge, Yellow: 0
[9]; [14]
  Plant response rating, Crabgrass, Brazil: 98
[9]; [19]
  Plant response rating, Crabgrass, Brazil: 90
[9]; [25]
  Plant response rating, Crabgrass, Brazil: 100
[10]; [14]
  Plant response rating, Sandbur: 80
[10]; [16]
  Plant response rating, Sandbur: 90
[10]; [19]
  Plant response rating, Sandbur: 80
[11]; [14]
  Plant response rating, Ragweed: 98
[11]; [16]
  Plant response rating, Ragweed: 100
[11]; [19]
  Plant response rating, Ragweed: 95
[12]; [21]
  Plant response rating, Surinam Grass: 100
[12]; [26]
  Plant response rating, Surinam Grass: 100
[12]; [22]
  Plant response rating, Surinam Grass: 95

## Cc1ccc2ccccc2c1-c1c(O)c(I)nn(C)c1=O [Compound 29]
[1]; [14]
  Plant response rating, Panicum, Fall: 95
[1]; [16]
  Plant response rating, Panicum, Fall: 98
[1]; [19]
  Plant response rating, Panicum, Fall: 85
[1]; [20]
  Plant response rating, Panicum, Fall: 98
[2]; [21]
  Plant response rating, Lambsquarters: 100
[2]; [22]
  Plant response rating, Lambsquarters: 100
[2]; [23]
  Plant response rating, Lambsquarters: 100
[2]; [24]
  Plant response rating, Lambsquarters: 98
[3]; [14]
  Plant response rating, Field Bindweed: 90
[3]; [19]
  Plant response rating, Field Bindweed: 80
[3]; [25]
  Plant response rating, Field Bindweed: 95
[3]; [20]
  Plant response rating, Field Bindweed: 98
[4]; [14]
  Plant response rating, Barnyardgrass: 25
[4]; [19]
  Plant response rating, Barnyardgrass: 0
[4]; [25]
  Plant response rating, Barnyardgrass: 65
[4]; [20]
  Plant response rating, Barnyardgrass: 90
[5]; [14]
  Plant response rating, Waterhemp: 90
[5]; [16]
  Plant response rating, Waterhemp: 98
[5]; [19]
  Plant response rating, Waterhemp: 80
[5]; [20]
  Plant response rating, Waterhemp: 100
[6]; [14]
  Plant response rating, Beggarticks: 98
[6]; [19]
  Plant response rating, Beggarticks: 80
[6]; [25]
  Plant response rating, Beggarticks: 100
[6]; [20]
  Plant response rating, Beggarticks: 100
Corn (Zea mays); [14]
  Plant response rating, Corn: 0
Corn (Zea mays); [19]
  Plant response rating, Corn: 0
Corn (Zea mays); [25]
  Plant response rating, Corn: 0
Corn (Zea mays); [20]
  Plant response rating, Corn: 0
[7]; [21]
  Plant response rating, Goosegrass: 20
[7]; [22]
  Plant response rating, Goosegrass: 0
[7]; [23]
  Plant response rating, Goosegrass: 50
[7]; [24]
  Plant response rating, Goosegrass: 90
[8]; [21]
  Plant response rating, Nutsedge, Yellow: 0
[8]; [26]
  Plant response rating, Nutsedge, Yellow: 30
[8]; [22]
  Plant response rating, Nutsedge, Yellow: 0
[8]; [24]
  Plant response rating, Nutsedge, Yellow: 70
[9]; [14]
  Plant response rating, Crabgrass, Brazil: 75
[9]; [19]
  Plant response rating, Crabgrass, Brazil: 30
[9]; [25]
  Plant response rating, Crabgrass, Brazil: 70
[9]; [20]
  Plant response rating, Crabgrass, Brazil: 90
[10]; [14]
  Plant response rating, Sandbur: 75
[10]; [16]
  Plant response rating, Sandbur: 90
[10]; [19]
  Plant response rating, Sandbur: 75
[10]; [20]
  Plant response rating, Sandbur: 90
[11]; [14]
  Plant response rating, Ragweed: 85
[11]; [16]
  Plant response rating, Ragweed: 70
[11]; [19]
  Plant response rating, Ragweed: 90
[11]; [20]
  Plant response rating, Ragweed: 98
[12]; [21]
  Plant response rating, Surinam Grass: 95
[12]; [26]
  Plant response rating, Surinam Grass: 95
[12]; [22]
  Plant response rating, Surinam Grass: 75
[12]; [24]
  Plant response rating, Surinam Grass: 100
